Source: patent EP2860184A1, “Dihydrogenphosphate salt of Tenofovir disoproxil” (Zentiva, k.s., priority 2013, dated 2015)
Counter-ions that a name gives are not always drawn.

Experiments:
[1] = Chemical stability stress test (HPLC purity before and after); assay type: physicochemical; conditions: for Starting HPLC purity (%): before the stress test; for HPLC purity (%) after the stress test: stress conditions: 80°C for 46 hours, 2760 min
Experimental: Physico-chemical properties (stability and solubility) of Tenofovir disoproxil dihydrogenphosphate were compared with other known salts (Tenofovir disoproxil fumarate, citrate, succinate, L-tartrate, D-tartrate, maleate) prepared according to published procedures. Table 2: Chemical stability of Tenofovir disoproxil and its salts (stress conditions: 80°C for 46 hours)
Column: Zorbax Eclipse XDB C18 RRHD, 100 x 3.0 mm (I.D.) x 1.8 um (Agilent), Run Time: 11.5 min., Injection Volume: 2 µl, Mobile Phase: MFA: 10mM K2HPO4 pH=7,0; MFB: ACN; MFA: 90-40-40-90; t: 0-7-9-9,5; F: 0,5 ml/min; 35°C

[2] = Apparent solubility and dissolution rate of the salts (Figure 3); assay type: physicochemical; conditions: compared with other salts, including Tenofovir disoproxil fumarate
Source text: The active substance solubility is important for bioavailability of the drug.
• Figure 1: DSC of Tenofovir disoproxil dihydrogenphosphate • Figure 2: 1H NMR of Tenofovir disoproxil dihydrogenphosphate • Figure 3: The apparent solubility and dissolution rate of Tenofovir disoproxil salts • Figure 4: Typical HPLC chromatogram of Tenofovir disoproxil dihydrogenphosphate prepared from Tenofovir disoproxil base • Figure 5: SEM images of Tenofovir disoproxil dihydrogenphosphate prepared from Tenofovir disoproxil • Figure 6: Typical HPLC chromatogram of Tenofovir disoproxil dihydrogenphosphate prepared from Tenofovir disoproxil fumarate • Figure 7: SEM images of Tenofovir disoproxil dihydrogenphosphate prepared from Tenofovir disoproxil fumarate

[3] = API solid form change during drug product manufacture (wet granulation); assay type: physicochemical
Source text: Moreover, we observed partial the conversion (about 30 %) of Tenofovir disoproxil fumarate (Formula II) in Tenofovir disoproxil hemifumarate (Formula III) during our formulation trials using wet granulation process.
Diffraction patterns were obtained with laboratory X'PERT PRO MPD PANalytical diffractometer, radiation used CuKα (λ = 1.542/Å). Generator settings: excitation voltage 45 kV, anodic current 40 mA. Scan description: scan type - gonio, measurement range 2 - 40º 2θ, step size 0.01º 2θ, step time: 0.5 s. Samples were measured as received on Si plate (zero background holder). Incident beam optics: programmable divergence slits (irradiated length 10 mm), 10 mm mask, 1/4º anti-scatter fixed slit, 0.02 rad Soller slits. Diffracted beam optics: X'Celerator detector, scanning mode, active length 2.122º, 0.02 rad Soller slits, anti-scatter slit 5.0 mm, Ni filter.
Tenofovir disoproxil dihydrogenphosphate (300 g), lactose monohydrate (206 g), microcrystalline cellulose (Avicel pH 101; 50 g), croscarmellose sodium (30 g), polyvinylpyrolidone K-25 (20 g) and magnesium stearate (10 g) were sieved. The mixture was loaded to high shear granulator. Purified water (150 ml) was sprayed on the blend in short time intervals and the mixture was kneaded to granules. The wet granules were dried in an oven at 60°C. The dried granules were milled and sieved. […]

[4] = in the presence of increased humidity and/or temperature; cited from earlier work

## CC(C)OC(=O)OCOP(=O)(CO[C@H](C)Cn1cnc2c(N)ncnc21)OCOC(=O)OC(C)C [Tenofovir disoproxil (free base), 9-[-2-(R)-[[bis[[(isopropoxycarbonyl)oxy]methoxy]phosphinoyl]methoxy]propyl] adenine]
[1]
  Starting HPLC purity (%): 95.66%
  HPLC purity (%) after the stress test: 6.13%

## CC(C)OC(=O)OCOP(=O)(CO[C@H](C)Cn1cnc2c(N)ncnc21)OCOC(=O)OC(C)C [Tenofovir disoproxil dihydrogenphosphate]
[2]
  Solubility: superior to other salts
[1]
  Starting HPLC purity (%): 99.66%
  HPLC purity (%) after the stress test: 97.69%
[1]; compared with fumarate, citrate, succinate, L-tartrate, D-tartrate, maleate, 80°C for 46 hours
  Chemical stability compared with other salts: the most stable salt of Tenofovir disoproxil
[3]; manufacturing of a drug product
  changes in API solid form: no changes in API solid form

## CC(C)OC(=O)OCOP(=O)(CO[C@H](C)Cn1cnc2c(N)ncnc21)OCOC(=O)OC(C)C [Tenofovir disoproxil fumarate]
[1]
  Starting HPLC purity (%): 99.81%
  HPLC purity (%) after the stress test: 4.08%
[3]; formulation trials using wet granulation process
  conversion in Tenofovir disoproxil hemifumarate: about 30%
[4]
  solid form conversion: converts into Tenofovir disoproxil hemifumarate

## CC(C)OC(=O)OCOP(=O)(CO[C@H](C)Cn1cnc2c(N)ncnc21)OCOC(=O)OC(C)C [Tenofovir disoproxil succinate]
[1]
  Starting HPLC purity (%): 99.04%
  HPLC purity (%) after the stress test: 54.16%

## CC(C)OC(=O)OCOP(=O)(CO[C@H](C)Cn1cnc2c(N)ncnc21)OCOC(=O)OC(C)C [Tenofovir disoproxil L-tartrate]
[1]
  Starting HPLC purity (%): 98.10%
  HPLC purity (%) after the stress test: 21.12%

## CC(C)OC(=O)OCOP(=O)(CO[C@H](C)Cn1cnc2c(N)ncnc21)OCOC(=O)OC(C)C [Tenofovir disoproxil D-tartrate]
[1]
  Starting HPLC purity (%): 99.66%
  HPLC purity (%) after the stress test: 25.51%
